# Test results taken from patent US8530404B2, “Compounds and methods for treatment of cancer” (FibroGen, Inc., priority 2005, dated 2013).
# Marks after values point to notes of the source that are not given here.
# Key:
# human A549 lung tumors = experiment: Subcutaneously implanted human A549 lung tumor mouse xenograft (Example 2); assay type: in vivo
# human H-460 lung tumors = experiment: Subcutaneously implanted human H-460 lung tumor mouse xenograft (Example 1); assay type: in vivo; settings: 15 mg/kg i.v.
# Text: Immuno-compromised athymic CD-1 nu/nu nude mice males (5-6 weeks old) were used in this study (Charles River Laboratories, Wilmington, Mass.). Animals were maintained in a HEPA-filtered environment during the experimental period. Cages, food, and bedding were autoclaved. Animal diets were obtained from Harlan Teklad (Madison, Wis.). […] The human H460 lung cancer cell line used was obtained from the National Cancer Institute. (Brower et al., (1986) Cancer Res 46:798-806.) Xenografted H-460 tumors are sensitive to chemotherapeutics commonly used in treatment of lung cancer. […] A stock tumor was established by subcutaneously injecting a cell suspension into nude mice. The resulting tumor was maintained in nude mice subcutaneously as tumor stock prior to use. Tumor implantation was performed when the stock tumors were in log phase of growth. Before implantation, tumor tissue was harvested from stock mice and placed in RPMI-1640 medium. Necrotic tissues were dissected away and viable tissues were cut into 1-2 mm^2 pieces. Tumor fragments were then transplanted subcutaneously to the right flank of the nude mice. Treatment (administration of compounds of the present invention) was started when the inoculated tumors reached approximately 100 mm^3, and continued for four weeks. […] [table] Sizes of the primary tumors were measured through the skin with calipers once per week. […] Body weight of the mice in each group was also measured once per week during the experimental period. All animals were sacrificed following thirty-two days of treatment. Primary tumors were excised and weighed on an electronic balance. Blood samples were taken during terminal sacrifice and placed in microhematocrit tubes containing EDTA. Complete Blood Counts (CBC) and reticulocyte analysis were performed with the Cell Dyn 3700 analyzer (Abbott Diagnostics), as described by the manufacturer.
# [1] = Complete blood counts and reticulocyte analysis in H-460 xenograft mice (Example 1); assay type: in vivo, mouse; settings: study end; 15 mg/kg i.v.
# Procedure: (§1) Sizes of the primary tumors were measured through the skin with calipers once per week. Tumor volumes were calculated by the formula V═(W^2*L)/2. Body weight of the mice in each group was also measured once per week during the experimental period. All animals were sacrificed following thirty-two days of treatment. Primary tumors were excised and weighed on an electronic balance. Blood samples were taken during terminal sacrifice and placed in microhematocrit tubes containing EDTA. Complete Blood Counts (CBC) and reticulocyte analysis were performed with the Cell Dyn 3700 analyzer (Abbott Diagnostics), as described by the manufacturer.
# H460 tumor cells = experiment: Subcutaneous H460 lung tumor xenograft, tumor growth delay study in combination with chemotherapeutics (Example 6); assay type: in vivo, mouse; settings: Cmpd A 60 mg/kg p.o., paclitaxel 15 mg/kg i.v., carboplatin 120 mg/kg i.p.
# Procedure: This study was used to determine the effect of combined treatments where compounds and methods of the invention were combined with conventional anti-tumor therapies. These experiments were performed essentially as described above in Example 3, except that 1×10^7 H460 tumor cells were implanted subcutaneously to the flanks of female Harlan nude animals. The number of animals in each group was 10. Treatments were initiated when tumors reached an average size of approximately 100 mm^3.
# The study design was representative of tumor progression studies of the TGD (Tumor Growth Delay) type, using a protocol that required individual animals to be humanely euthanized after reaching a set endpoint of tumor volume greater than or equal to 2 cc.
# These two chemotherapeutic agents are of two broad classes of conventional anti-tumor therapeutics: microtubule poisons (paclitaxcel); and DNA-directed agents, including the sub-classification of DNA alkylating agents (carboplatin). In tumor-bearing human patients, conventional anti-tumor therapy commonly use of one or both classes of chemotherapeutic agents.
# The study was initiated with administration of conventional anti-tumor treatment or vehicle control, and followed one day after with administration of Compound A or vehicle control. […] (See Table 11 and Table 12 for compound and chemotherapeutic agent dosing schedule.)
# Tumor progression was determined for each treatment group and is presented as median Time-to-Endpoint (TTE).
# [2] = Body weight in H-460 xenograft mice (Example 1); assay type: in vivo, mouse; settings: 15 mg/kg i.v.
# Procedure: as §1
# Thus, differences in tumor progression as measured by mean tumor volumes could not be attributed to any generalized toxicity or suppression of normal metabolism that might have been detected by changes in body weights.
# HCT116-GFP colon tumors = experiment: Orthotopically implanted human HCT116-GFP colon tumor mouse xenograft (Example 4); assay type: in vivo; settings: 60 mg/kg intraperitoneal at four day intervals, three doses
# Procedure: Procedures were carried out as described above for Example 3, except that the tumors of GFP-transfected H-460 cells were replaced with HCT116-GFP colon tumors, and surgical orthotopic implantation was directly into colon tissue.
# The HCT116 tumor model used here is a well-characterized representative colon xenograft model. The isolation of the human HCT116 tumor cell line from a human colon carcinoma has been described. (Brattain et al (1981) Cancer Res 41:1751-1756.) To aid in the detection of tumors and metastases, HCT116 cells were transduced with genes directing the expression of fluorescent proteins (e.g., HCT116-GFP). The use of fluorescent HCT116-derived tumors in similar studies has been described previously. (Ross et al (2000) Nat Genet 24:227-235.)
# HCT116-GFP tumor fragments harvested from the stock animals were transplanted into animals by surgical orthotopic implantation (SOI) as follows. The animals were anesthetized with isoflurane and the surgical area was sterilized using iodine and alcohol. After proper exposure of the colon following a lower midline abdominal incision, the serosa of the colon was removed and two pieces of 1 mm^3 tumor fragments per mouse were implanted. An 8-0 surgical suture was used to penetrate these small tumor pieces and suture them on the wall of the intestine. The intestine was then returned to the abdominal cavity. The incision in the abdominal wall was closed with a 6-0 surgical suture in one layer. The animals were kept under isoflurane anesthesia during surgery. All procedures of the operation described above were performed under a 7× magnification microscope (Olympus). Animals were kept in a barrier facility under HEPA filtration.
# Administration of Compound A or 5-FU (5-Flurouracil) to the animals was initiated three days following tumor transplantation. 5-FU, a chemotherapeutic agent used as a positive control, was administered by intraperitoneal injection (60 mg/kg) at four day intervals for a total of three doses. Compound A was administered at either 20 mg/kg or 60 mg/kg three times per week. Tumor volumes were measured at day 15, day 22, and day 29.
smiles,measurement,setting,value
"CC(=O)O[C@H]1C(=O)[C@@]2(C)[C@H]([C@H](OC(=O)c3ccccc3)[C@]3(O)C[C@H](OC(=O)[C@H](O)[C@@H](NC(=O)c4ccccc4)c4ccccc4)C(C)=C1C3(C)C)[C@]1(OC(C)=O)CO[C@@H]1C[C@@H]2O [Taxol, paclitaxel, reference compound]","tumor weight at necropsy, Mean",human A549 lung tumors; 15 mg/kg i.v.,0.45 g
same,A549 mean tumor volume,"human A549 lung tumors; week 0, 15 mg/kg i.v.",106 mm^3
same,A549 mean tumor volume,"human A549 lung tumors; week 1, 15 mg/kg i.v.",130 mm^3
same,A549 mean tumor volume,"human A549 lung tumors; week 2, 15 mg/kg i.v.",152 mm^3
same,A549 mean tumor volume,"human A549 lung tumors; week 3, 15 mg/kg i.v.",177 mm^3
same,A549 mean tumor volume,"human A549 lung tumors; week 4, 15 mg/kg i.v.",179 mm^3
same,A549 mean tumor volume,"human A549 lung tumors; week 5, 15 mg/kg i.v.",186 mm^3
same,A549 mean tumor volume,"human A549 lung tumors; week 6, 15 mg/kg i.v.",231 mm^3
same,A549 mean tumor volume,"human A549 lung tumors; week 7, 15 mg/kg i.v.",275 mm^3
same,A549 mean tumor volume,"human A549 lung tumors; week 8, 15 mg/kg i.v.",347 mm^3
same,A549 mean tumor volume,"human A549 lung tumors; week 9, 15 mg/kg i.v.",360 mm^3
same,increase in mean tumor volume,"human A549 lung tumors; within 1 week (7 days) from start, Taxol 15 mg/kg i.v., vehicle control 45%",23%
same,mean tumor volume,human H-460 lung tumors; day 0,83 mm^3
same,mean tumor volume,human H-460 lung tumors; day 10,387 mm^3
same,mean tumor volume,human H-460 lung tumors; day 17,813** mm^3
same,mean tumor volume,human H-460 lung tumors; day 24,1160** mm^3
same,mean tumor volume,human H-460 lung tumors; day 31,1292** mm^3
same,Mean Tumor Weight at Necropsy,human H-460 lung tumors; day 32,1.59 g
same,Abs Retic (reticulocyte count),[1],462
same,Baso %,[1],0.67%
same,Baso (basophils),[1],70 µL⁻¹
same,EOS %,[1],0.83%
same,Eos (eosinophil count),[1],70 µL⁻¹
same,HCT (hematocrit),[1],41.5%
same,HGB (hemoglobin),[1],14.1 g/dL
same,IRF (immature RET fraction),[1],0.56
same,Lymph %,[1],24.7%
same,Lymph (lymphocytes),[1],2600 µL⁻¹
same,MCH (mean corpuscular hemoglobin),[1],15.6 pg
same,MCV (mean corpuscular volume),[1],45.9 fL
same,Mono (monocytes),[1],300 µL⁻¹
same,Neut %,[1],70.8%
same,Neut (neutrophils),[1],7400 µL⁻¹
same,PLAT (platelets),[1],1.943e+06 µL⁻¹
same,RBC (red blood cells),[1],9.03e+06 µL⁻¹
same,RDW (RBC distribution width),[1],21.8%
same,RET (reticulocytes),[1],5.1%
same,WBC (white blood cells),[1],10400 µL⁻¹
same,"% TGD, Percent Tumor Growth Delay (vs. Group control)",H460 tumor cells,104%
same,"T-C (Test-control, difference of medians)",H460 tumor cells,16.9 days
same,"Median TTE (Time-to-Endpoint, tumor volume >= 2 cc)",H460 tumor cells; vehicle group 16.2,33.1 days
same,mean animal body weight,[2]; day 0,26.6 grams
same,mean animal body weight,[2]; day 10,29.5 grams
same,mean animal body weight,[2]; day 17,30.6 grams
same,mean animal body weight,[2]; day 24,31.1 grams
same,mean animal body weight,[2]; day 31,30.9 grams
"O=c1[nH]cc(F)c(=O)[nH]1 [Compound 5-FU, 5-Flurouracil, reference compound]","mean tumor volume (calipers, mean +/- SD)",HCT116-GFP colon tumors; Treatment Day 15,0 +/− 0
same,"mean tumor volume (calipers, mean +/- SD)",HCT116-GFP colon tumors; Treatment Day 22,1 +/− 4
same,"mean tumor volume (calipers, mean +/- SD)",HCT116-GFP colon tumors; Treatment Day 29,8 +/− 13
